Assay results published in US11241433B2, “Treatment or prevention of autism disorders using menthol, linalool and/or icilin” (Société des Produits Nestlé S.A., priority 2013, dated 2022).

Columns and labels:
Assay type in all cases: cell-based
[1] = test system: Lateral Amygdala glutamatergic neuron (in a mouse brain slice); test: whole cell, current clamp recordings, square pulse of 2.5 s at high depolarization; settings: square pulse of 2.5 s at high depolarization of membrane potential (approximately -30 mV); relative to control; FIG. 2
From the text: (§1) A mouse brain slice was used to study the effects of Menthol, Linalool and Icilin. The amygdaloid complex is located within the medial temporal lobe in neocortex and amygdala. The lateral and basolateral nuclei of the amygdaloid complex receive sensory information from cortical and thalamic structures, process the information, and then transmit the information, either directly or through the basal nucleus, to the central nucleus. For experimental analysis of neural activity, synaptic responses from the basolateral complex can be evoked electrically using electrodes, and the action potentials can be measured.
A square pulse of 2.5 s was applied at high depolarization of membrane potential (approximately −30 mV).

neocortex = test: action potential measurements in mouse brain slice, neocortex; settings: for amount of current required to trigger an action potential / threshold to trigger an action potential: neocortex
From the text: as §1

[2] = test system: Lateral Amygdala glutamatergic neuron (in a mouse brain slice); test: whole cell, current clamp recordings of spontaneous bursts with increasing concentration of gabazine
From the text: as §1

Row | Structure (SMILES) | inactivation of the sodium fast channels / further neural firing [1] | action potentials at higher stimulation levels (neocortex) | amount of current required to trigger an action potential (neocortex) | threshold to trigger an action potential (neocortex) | spontaneous action potential bursts ([2]; Menthol 250 μM applied extracellularly 10 minutes previous to and during increasing concentrations of gabazine, FIG. 5 compared to FIG. 3) | spontaneous action potential bursts ([2]; increasing concentrations of gabazine alone, applied extracellularly, recordings of 5 minutes each, 10 minute washout, FIG. 3)
1 | O=C1NC(c2cccc([N+](=O)[O-])c2)=CCN1c1ccccc1O [Icilin] | inactivation of the sodium fast channels happens sooner relative to control | abort action potentials at higher stimulation levels | increase the amount of current required to trigger an action potential | increase the threshold to trigger an action potential | – | –
2 | C=CC(C)(O)CCC=C(C)C (centres unmarked) [Linalool] | inactivation of the sodium fast channels happens sooner relative to control | abort action potentials at higher stimulation levels | increase the amount of current required to trigger an action potential | increase the threshold to trigger an action potential | – | –
3 | CC1CCC(C(C)C)C(O)C1 (centres unmarked) [Menthol] | inactivation of the sodium fast channels happens sooner relative to control | abort action potentials at higher stimulation levels | increase the amount of current required to trigger an action potential | increase the threshold to trigger an action potential | complete absence or a strongly decreased presence of spontaneous bursts | –
4 | COc1ccc(-c2ccc(=N)n(CCCC(=O)O)n2)cc1 [gabazine] | – | – | – | – | – | neurons spontaneously present action potential bursts
